Consider two compounds from patent US3981982A, “Radioimmunoassay for determining the digoxin content of a sample” (Abbott Laboratories, priority 1974, dated 1976).

Series [1] has as its system digoxin antibody. The series is described as follows: Competitive radioimmunoassay with I^125 digoxin tyramine analog, polyethylene glycol separation: percent bound (Table I). Conditions: for Percent Bound: single tube. Type of series: binding, rabbits. The text has this: Described is a competitive radioimmunoassay in which non-radioactive digoxin in a serum sample competes with a constant amount of I^125 digoxin tyramine analog for binding cites on a limited amount of digoxin antibody. The percentage or portion of the radioactivity labeled digoxin which is bound to the antibody is inversely proportional to the concentration of digoxin in the serum sample. The antibody bound digoxin, both radioactive and non-radioactive is separated from unbound digoxin and the radioactivity of the complex is measured with a well-type gamma scintillation counter. The concentration of digoxin in the serum is determined by comparison with standards containing measured amounts of unlabeled digoxin. The use of I^125 digoxin tyramine analog simplifies the procedure, obviating the need for liquid scintillation counting fluid which must be used with ^3 H-digoxin.
In the radioimmunoassay of the present invention, the use of polyethylene glycol is preferred to separate the bound, labeled digoxin tyramine analog from the free digoxin although ethanol or ammonium sulfate can be used. After incubation of the antigen and antibody, a predetermined amount of polyethylene glycol is added and the mixture is agitated. Subsequently, the antibody-bound digoxin is precipitated and separated by centrifugation. The radioactivity remaining in the precipitate is measured to determine the amount of I^125 digoxin tyramine analog which is bound to the antibody. This amount will be inversely proportional with the quantity of nonlabeled antigen present in the serum sample.
The radioimmunoassay of the present invention measures digoxin in the serum sample. The digoxin in a serum sample competes with a constant amount of a radioactively labeled digoxin tyramine analog for binding cites on a limited amount of digoxin antibody. The digoxin tyramine analog comprises 3-0-(4-Hydroxyphenethylcarbamoyl) digoxigenin prepared as hereinafter described. The digoxin tyramine analog is labeled with a radioactive isotope, employing conventional procedures. Iodine-I^125 is preferred as the labeling agent because of its advantageous half life but other radionuclides such as iodine^131, phosphorus^32 and tritium can also be used to radioactively label the reagent. The use of this tracer simplifies the procedure, obviating the need for liquid scintillation counting fluid which must be used with prior tracers such as ^3 H-digoxin.
1. I^125 -digoxin tyramine analog solution in an alcohol-phosphate saline buffer and having a radioactivity level of approximately 1 microcurie per vial.
2. Digoxin standards for preparation of a standard curve and comprising five vials containing 0.0, 0.5, 1.0, 2.0 and 4.0 nanograms per milliliter digoxin in normal human serum. 0.2% sodium azide is used as a preservative.
3. Digoxin antiserum obtained from rabbits in phosphate-saline buffer containing 0.1% […] serum albumin. 0.2% sodium azide is used as a preservative.
4. Polyethylene glycol, 18% solution in 0.09M barbital buffer.
The test procedure is conducted as follows.
b. Tubes 3 through 12 containing known amounts of digoxin are used to prepare the standard curve. Tubes 3 and 4, 0.0 nanograms per milliliter digoxin. Tubes 5 and 6, 0.5 nanograms per milliliter digoxin. Tubes 7 and 8, 1.0 nanograms per milliliter digoxin. Tubes 9 and 10, 2.0 nanograms per milliliter digoxin. Tubes 11 and 12, 4.0 nanograms per milliliter digoxin.
(§1) The tubes are shaken to mix the reagents therein.
The points are connected with straight lines to construct the curve.

For series [2], the system named is digoxin antibody. The experiment in a line: Reproducibility of percent bound, two technicians (Table II). Type of series: binding, rabbits. The method, then:
as §1
Table II illustrates the accuracy, precision and reproducibilty of the method of the present invention.
Replicates of 2 Panel Samples were assayed by two technicians in the
laboratory. Fifteen replicate samples were used.

The conditions of series [3]: usually; background statement; cited from earlier work.
For series [4] the following is noted: digoxin level; suggested by H. M. Part et al., J. of NUCL. Med. 1973; cited from earlier work.

Structures are written as SMILES. Values joined by “and” are separate entries in the source; they are usually repeats but may differ in a detail not shown here. Equal entries are not always repeated.

With `C[C@]12CC[C@H](OC(=O)NCCc3ccc(O)c([125I])c3)C[C@H]1CC[C@@H]1[C@@H]2C[C@@H](O)[C@]2(C)[C@@H](C3=CC(=O)OC3)CC[C@]12O` [I^125 digoxin tyramine analog], the “Average % Bound” value is 59.7% in series [1] (digoxin standard 0.0 ng/ml, mean of duplicate tubes 3, 4); 52.9% in series [1] (digoxin standard 0.5 ng/ml, mean of duplicate tubes 5, 6); 41.5% in series [1] (digoxin standard 1.0 ng/ml, mean of duplicate tubes 7, 8); 22.9% in series [1] (digoxin standard 2.0 ng/ml, mean of duplicate tubes 9, 10); 12.9% in series [1] (digoxin standard 4.0 ng/ml, mean of duplicate tubes 11, 12); 17.7% in series [1] (unknown serum sample No. 14, mean of duplicates). For the same compound, the “Average % Bound” value in series [1] (unknown serum sample No. 15, mean of duplicates) was 64.1%; in series [1] (unknown serum sample No. 16, mean of duplicates), 25.3%; in series [1] (unknown serum sample No. 17, mean of duplicates), 49.6%; in series [1] (unknown serum sample No. 18, mean of duplicates), 24.4%. Further, the “Percent Bound” value is 59.2% and 60.2% in series [1] (digoxin standard 0.0 ng/ml); 53.8% and 52.1% in series [1] (digoxin standard 0.5 ng/ml); 41.5% in series [1] (digoxin standard 1.0 ng/ml); 22.5% and 23.4% in series [1] (digoxin standard 2.0 ng/ml); 12.8% and 12.9% in series [1] (digoxin standard 4.0 ng/ml); 17.5% and 17.9% in series [1] (unknown serum sample No. 14). The “Percent Bound” value in series [1] (unknown serum sample No. 15) was 63.3% and 65.0%; in series [1] (unknown serum sample No. 16), 25.1% and 25.5%; in series [1] (unknown serum sample No. 17), 50.8% and 48.5%; in series [1] (unknown serum sample No. 18), 24.5% and 24.3%. Besides, the “% Bound” value was 44.1% in series [2] (Panel Sample 1, Technician I, fifteen replicates); 43.6% in series [2] (Panel Sample 1, Technician II, fifteen replicates); 21.5% in series [2] (Panel Sample 2, Technician I, only 14 replicates); 20.1% in series [2] (Panel Sample 2, Technician II, fifteen replicates).

In the case of `C[C@H]1O[C@@H](O[C@H]2[C@@H](O)C[C@H](O[C@H]3[C@@H](O)C[C@H](O[C@H]4CC[C@@]5(C)[C@H](CC[C@@H]6[C@@H]5C[C@@H](O)[C@]5(C)[C@@H](C7=CC(=O)OC7)CC[C@]65O)C4)O[C@@H]3C)O[C@@H]2C)C[C@H](O)[C@@H]1O` [digoxin], the “amounts of digoxin in serum” value in series [3] is listed as “less than five”. The approximate toxic threshold in series [4] was ~2 ng/mL.
